Results taken from patent publication US20090088482A1, “Compositions and Methods For Treating Heart Failure” (The Trustees Of Columbia University In The City New York, priority 2003, published 2009).

Test system: rats with chronic heart failure induced by coronary artery ligation
Assay: Ex vivo left ventricular pressure-volume relationship (LVPVR) tracings (Example 2)
Assay type: in vivo
Settings: 2 mg/kg/day oral, 8 weeks, untreated CHF 1.11
Experimental: Chronic heart failure was induced by coronary artery ligation in rats, and was confirmed by echocardiography, three weeks post-surgery. Three groups of rats were studied: (1) Chronic heart failure without clenbuterol (n=7); (2) chronic heart failure+clenbuterol (2 mg/kg/day; n=5); and (3) rats after sham operation (n=11). After 8 weeks of oral clenbuterol therapy, echocardiography and direct hemodynamic monitoring were performed. Rat hearts were then harvested for ex vivo left ventricular pressure-volume relationship (LVPVR) tracings, histologic (trichrome) sections, and molecular assays. Western analysis for myocardial calcium-handling proteins (ryanodine receptors (RyR), SERCA2a, phospholamban, and calcium-sodium exchanger) was assessed by densitometry.

Structure (SMILES): CC(C)(C)NCC(O)c1cc(Cl)c(N)c(Cl)c1 (stereo not shown) [Clen, clenbuterol]
- LVPVR volume for a given LV pressure=15 mmHg: 1.02 mL
